In brackets after ≈: the same amount, converted by molar mass. Blank lines part the entries; values can stand above or below the molecule they belong to.
Assays:
Experiment in all cases: ≥ marks a high value that may be exact or a test limit, other limits are often not marked, values filed in µg/mL are converted to µM
[1] = tested on: Escherichia coli UB1005
[2] = tested on: Pseudomonas aeruginosa
[3] = tested on: Escherichia coli 55B5
[4] = tested on: Salmonella typhimurium
[5] = tested on: Staphylococcus aureus
[6] = tested on: Staphylococcus aureus ATCC 2576
[7] = tested on: Escherichia coli ATCC 25629
[8] = tested on: Shigella dysenteriae
[9] = tested on: Candida albicans ATCC 3007
[10] = tested on: Shigella dysenteriae ATCC 2932
[11] = tested on: Escherichia coli
[12] = tested on: Escherichia coli ATCC 25922
[13] = tested on: Bacillus megaterium
[14] = tested on: Saccharomyces cerevisiae
[15] = tested on: Aspergillus flavus
[16] = tested on: Candida parapsilosis ATCC 22019
[17] = tested on: Escherichia coli ATCC 35218
[18] = tested on: Candida albicans ATCC 90028
[19] = tested on: Enterococcus faecalis ATCC 29212
[20] = tested on: Pseudomonas aeruginosa ATCC 27853
[21] = tested on: Staphylococcus aureus ATCC 25923
[22] = tested on: Spiroplasma melliferum BC3
[23] = tested on: Spiroplasma citri R8A2
[24] = tested on: Spiroplasma floricola BNR 1
[25] = tested on: Mycoplasma mycoides ssp. mycoides SC KH3J
[26] = tested on: Acholeplasma laidlawii A-EF22
[27] = tested on: Staphylococcus aureus II ATCC 6538P
[28] = tested on: Staphylococcus simulans
[29] = tested on: Staphylococcus epidermidis LT1324
[30] = tested on: Escherichia coli D21
[31] = tested on: Micrococcus luteus
[32] = tested on: Acinetobacter baumannii ATCC 19606

Compound: CC[C@H](C)[C@H](NC(=O)[C@@H]1CCCN1C(=O)[C@H](CC(C)C)NC(=O)[C@@H](N)Cc1ccccc1)C(=O)N[C@H](C(=O)N[C@H](C(=O)N[C@@H](CC(N)=O)C(=O)N[C@@H](CC(C)C)C(=O)N[C@@H](CC(C)C)C(=O)N[C@@H](CO)C(=O)NCC(=O)N[C@@H](CC(C)C)C(=O)N[C@@H](CC(C)C)C(=O)O)[C@@H](C)O)C(C)C [FLPIVTNLLSGLL]
- MIC [12]: 231 µM (≈ 323 µg/mL)
- MIC [13]: ≥ 46 µM
- MIC [14]: ≥ 116 µM
- MIC [15]: ≥ 58 µM
- MIC [16]: ≥ 116 µM
- MIC [17]: ≥ 116 µM
- MIC [18]: ≥ 116 µM
- MIC [19]: > 116 µM
- MIC [20]: > 231 µM
- MIC [21]: 58 µM (≈ 81.2 µg/mL)

Compound: CC(C)C[C@H](NC(=O)[C@H](CC(C)C)NC(=O)[C@H](CCCCN)NC(=O)[C@H](CC(C)C)NC(=O)[C@H](CC(C)C)NC(=O)[C@H](CC(C)C)NC(=O)[C@H](CCCCN)NC(=O)[C@H](CC(C)C)NC(=O)[C@H](CC(C)C)NC(=O)[C@H](CC(C)C)NC(=O)[C@H](CCCCN)NC(=O)[C@H](CC(C)C)NC(=O)[C@H](CC(C)C)NC(=O)[C@@H](N)CCCCN)C(=O)N[C@@H](CCCCN)C(=O)O [KLLKLLLKLLLKLLK]
- MIC [22]: 6.25 µM (≈ 11.2 µg/mL)
- MIC [23]: 6.25 µM (≈ 11.2 µg/mL)
- MIC [24]: 6.25 µM (≈ 11.2 µg/mL)
- MIC [25]: 6.25 µM (≈ 11.2 µg/mL)
- MIC [26]: 1.56 µM (≈ 2.79 µg/mL)

More lines, main results first:

- MIC [1]: 5.5 µM (≈ 13.7 µg/mL)
- MIC [2]: 10.5 µM (≈ 26.2 µg/mL)
- MIC [3]: 5.2 µM (≈ 13 µg/mL)
- MIC [4]: 8.5 µM (≈ 21.2 µg/mL)
- MIC [5]: 30 µM (≈ 74.9 µg/mL)
Compound: CC[C@H](C)[C@H](NC(=O)[C@H](C)N)C(=O)N[C@@H](Cc1cnc[nH]1)C(=O)N[C@@H](CCCCN)C(=O)N[C@@H](CC(C)C)C(=O)N[C@@H](C)C(=O)N[C@@H](Cc1cnc[nH]1)C(=O)N[C@@H](CCCCN)C(=O)N[C@@H](CC(C)C)C(=O)N[C@@H](CC(C)C)C(=O)N[C@@H](CCCCN)C(=O)N[C@@H](CCCCN)C(=O)N[C@H](C(=O)N[C@@H](CC(C)C)C(=O)N[C@@H](CCCN=C(N)N)C(=O)N[C@@H](C)C(=O)N[C@H](C(=O)N[C@@H](CCCCN)C(=O)N[C@@H](CCCCN)C(=O)N[C@@H](CC(C)C)C(=O)N[C@@H](C)C(=O)N[C@@H](CC(N)=O)C(=O)O)C(C)C)[C@@H](C)O [AIHKLAHKLLKKTLRAVKKLAN]

- MIC [6]: 0.166 µM (≈ 0.5 µg/mL)
- MIC [7]: 1.66 µM (≈ 5 µg/mL)
- MIC [8]: 1.66 µM (≈ 5 µg/mL)
- MIC [9]: 2.49 µM (≈ 7.5 µg/mL)
- MIC [11]: 1.66 µM (≈ 5 µg/mL)
- MIC [5]: 0.332 µM (≈ 1 µg/mL)
Compound: CC[C@H](C)[C@H](NC(=O)CN)C(=O)N[C@@H](CC(C)C)C(=O)N[C@@H](CCCCN)C(=O)N[C@@H](CCCCN)C(=O)N[C@@H](Cc1ccccc1)C(=O)N[C@@H](CCSC)C(=O)N[C@@H](CC(C)C)C(=O)N[C@@H](Cc1cnc[nH]1)C(=O)N[C@@H](CCCN=C(N)N)C(=O)NCC(=O)N[C@H](C(=O)N[C@@H](CCCCN)C(=O)N[C@H](C(=O)N[C@@H](Cc1ccc(O)cc1)C(=O)N[C@@H](CCCCN)C(=O)N[C@@H](CCSC)C(=O)N[C@@H](CCCN=C(N)N)C(=O)N[C@H](C(=O)N[C@@H](CC(C)C)C(=O)N[C@@H](CO)C(=O)N[C@@H](CCCCN)C(=O)N[C@@H](CCCN=C(N)N)C(=O)N[C@@H](CO)C(=O)N[C@@H](Cc1cnc[nH]1)C(=O)O)[C@@H](C)O)C(C)C)[C@@H](C)O [GILKKFMLHRGTKVYKMRTLSKRSH]
- MIC [10]: 0.829 µM (≈ 2.5 µg/mL)

- MIC [12]: 3 µM (≈ 5.41 µg/mL)
- MIC [27]: 6 µM (≈ 10.8 µg/mL)
- MIC [28]: 1.5 µM (≈ 2.71 µg/mL)
- MIC [29]: 1.5 µM (≈ 2.71 µg/mL)
- MIC [30]: 3 µM (≈ 5.41 µg/mL)
- MIC [31]: 2 µM (≈ 3.61 µg/mL)
- MIC [32]: 2 µM (≈ 3.61 µg/mL)
- MIC [20]: 6 µM (≈ 10.8 µg/mL)
Compound: CC(C)C[C@H](NC(=O)[C@H](CC(C)C)NC(=O)[C@H](CCCCN)NC(=O)[C@H](CC(C)C)NC(=O)[C@H](CC(C)C)NC(=O)[C@H](CCCCN)NC(=O)[C@H](CC(C)C)NC(=O)[C@H](CC(C)C)NC(=O)[C@H](CCCCN)NC(=O)[C@H](CC(C)C)NC(=O)[C@H](CC(C)C)NC(=O)[C@H](CCCCN)NC(=O)[C@H](CC(C)C)NC(=O)[C@@H](N)CCCCN)C(=O)N[C@@H](CCCCN)C(N)=O [KLKLLKLLKLLKLLK]
